Laboratory results published in ChEMBL document CHEMBL5338706, “Discovery of a potent and selective proteolysis targeting chimera (PROTAC) degrader of NSD3 histone methyltransferase” (Eur J Med Chem, 2022).
Calls of active or inactive are those of the source. No cut-off for these calls is given here.

How the values were obtained:
[1] = tested on: NCI-H1703; assay: Downregulation of ALDH1A1 in human NCI-H1703 cells at […] measured after 72 hrs by RNA sequencing assay; type: functional, cell-based; details: dose 7.5 µM
[2] = tested on: NCI-H520; assay: Induction of apoptosis in human NCI-H520 cells assessed as decrease in MCL-1 protein expression at 5 to 10 uM by Western blot analysis; type: functional, cell-based; details: dose 5-10 µM
[3] = tested on: NCI-H1703; assay: Induction of apoptosis in human NCI-H1703 cells assessed as decrease in MCL-1 protein expression at […] by measuring fold change by Western blot analysis relative to control; type: functional; details: dose 7.5 µM
[4] = molecular target: T1, Histone-lysine N-methyltransferase NSD2 (Homo sapiens) (UniProt O96028); assay: Induction of NSD2 degradation in human A549 cells at 5 to 10 uM incubated for 72 hrs by Western blot analysis; type: cell-based; details: dose 5-10 µM
T1 sequence (whole entry): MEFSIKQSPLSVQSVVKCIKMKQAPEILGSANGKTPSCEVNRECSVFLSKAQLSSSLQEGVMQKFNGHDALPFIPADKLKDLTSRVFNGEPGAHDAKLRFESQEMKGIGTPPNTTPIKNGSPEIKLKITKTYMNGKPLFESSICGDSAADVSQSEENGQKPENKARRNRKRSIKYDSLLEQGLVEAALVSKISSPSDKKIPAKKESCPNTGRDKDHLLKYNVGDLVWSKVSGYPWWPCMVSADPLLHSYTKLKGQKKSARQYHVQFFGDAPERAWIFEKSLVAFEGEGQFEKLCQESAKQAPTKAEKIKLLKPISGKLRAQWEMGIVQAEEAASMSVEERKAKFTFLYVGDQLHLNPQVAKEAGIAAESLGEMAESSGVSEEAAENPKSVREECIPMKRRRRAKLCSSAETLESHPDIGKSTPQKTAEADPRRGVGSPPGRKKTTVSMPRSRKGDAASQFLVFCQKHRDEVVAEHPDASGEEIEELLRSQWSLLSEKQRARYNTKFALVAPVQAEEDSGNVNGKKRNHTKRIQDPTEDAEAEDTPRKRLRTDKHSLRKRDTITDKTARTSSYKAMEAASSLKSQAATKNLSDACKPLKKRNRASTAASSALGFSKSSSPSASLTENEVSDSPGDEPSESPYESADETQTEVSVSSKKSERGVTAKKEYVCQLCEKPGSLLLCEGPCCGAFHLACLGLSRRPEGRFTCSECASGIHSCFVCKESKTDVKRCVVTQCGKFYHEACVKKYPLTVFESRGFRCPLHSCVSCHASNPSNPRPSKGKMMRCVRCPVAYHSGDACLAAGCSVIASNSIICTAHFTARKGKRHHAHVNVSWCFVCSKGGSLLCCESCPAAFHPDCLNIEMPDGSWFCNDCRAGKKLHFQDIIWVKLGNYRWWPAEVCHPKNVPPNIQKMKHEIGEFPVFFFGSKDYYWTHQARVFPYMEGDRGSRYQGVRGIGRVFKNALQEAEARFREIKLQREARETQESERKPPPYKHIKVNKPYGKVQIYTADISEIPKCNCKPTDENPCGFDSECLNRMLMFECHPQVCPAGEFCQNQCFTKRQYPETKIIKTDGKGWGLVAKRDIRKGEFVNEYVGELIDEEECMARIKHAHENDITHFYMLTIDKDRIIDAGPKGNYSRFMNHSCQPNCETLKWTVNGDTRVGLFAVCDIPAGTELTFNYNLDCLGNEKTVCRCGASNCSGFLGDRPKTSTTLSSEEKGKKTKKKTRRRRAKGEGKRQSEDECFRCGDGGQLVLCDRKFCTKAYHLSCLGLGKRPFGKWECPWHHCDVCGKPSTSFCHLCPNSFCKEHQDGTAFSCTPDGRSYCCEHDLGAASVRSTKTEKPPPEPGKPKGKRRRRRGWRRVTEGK

[5] = Downregulation of Cyclin D1 level in human NCI-H1703 cells at 3 uM by measuring fold change by Western blot analysis relative to control; type: functional
[6] = tested on: A549; assay: Antiproliferative activity against human A549 cells incubated for 3 days by CCK-8 method; type: functional, cell-based; details: A549, 72 h
[7] = tested on: NCI-H1703; assay: Induction of apoptosis in human NCI-H1703 cells assessed as necrotic cells at 10 uM measured after 72 hrs by PI/Annexin-V staining based flow cytometry analysis (reference value: 2.80% ); type: functional
[8] = tested on: NCI-H1703; assay: Induction of apoptosis in human NCI-H1703 cells assessed as necrotic cells at 3 uM measured after 72 hrs by PI/Annexin-V staining based flow cytometry analysis (reference value: 2.80% ); type: functional
[9] = tested on: NCI-H1703; assay: Induction of apoptosis in human NCI-H1703 cells assessed as early apoptotic cells at 5 uM measured after 72 hrs by PI/Annexin-V staining based flow cytometry analysis (reference value: 1.47% ); type: functional
[10] = tested on: NCI-H520; assay: Induction of apoptosis in human NCI-H520 cells assessed as decrease in NSD3 protein expression at […] by measuring fold change by Western blot analysis relative to control; type: functional; details: dose 7.5 µM
[11] = Downregulation of CDC25A level in human NCI-H1703 cells at […] by measuring fold change by Western blot analysis relative to control; type: functional; details: dose 7.5 µM
[12] = tested on: NCI-H1703; assay: Downregulation of CDC25A in human NCI-H1703 cells measured after 72 hrs by RT-qPCR method; type: functional, cell-based; details: dose 3-7.5 µM
[13] = tested on: NCI-H1703; assay: Induction of apoptosis in human NCI-H1703 cells assessed as late apoptotic cells at […] measured after 72 hrs by PI/Annexin-V staining based flow cytometry analysis (reference value: 3.00% ); type: functional; details: dose 7.5 µM
[14] = tested on: NCI-H520; assay: Induction of apoptosis in human NCI-H520 cells assessed as decrease in Bcl-XL protein expression at 5 uM by measuring fold change by Western blot analysis relative to control; type: functional
[15] = tested on: NCI-H1703; assay: Induction of apoptosis in human NCI-H1703 cells assessed as late apoptotic cells at 5 uM measured after 72 hrs by PI/Annexin-V staining based flow cytometry analysis (reference value: 3.00% ); type: functional
[16] = tested on: NCI-H520; assay: Induction of apoptosis in human NCI-H520 cells assessed as decrease in NSD3 protein expression at 5 uM by measuring fold change by Western blot analysis relative to control; type: functional
[17] = tested on: A549; assay: Antitumor activity against human A549 cells xenografted mouse model assessed as reduction in NSD3 expression level at 100 mg/kg, ip measured within 36 hrs by Western blot analysis; type: functional, organism-based
[18] = tested on: NCI-H520; assay: Induction of apoptosis in human NCI-H520 cells assessed as decrease in Bcl-XL protein expression at […] by measuring fold change by Western blot analysis relative to control; type: functional; details: dose 7.5 µM

In the case of Cc1cc(CNCCCCCCCCCCC(=O)N[C@H](C(=O)N2C[C@H](O)C[C@H]2C(=O)N[C@@H](C)c2ccc(-c3scnc3C)cc2)C(C)(C)C)cc(C)c1-c1ncn(C)c1-c1ccnc2cc(F)ccc12, the Activity [1] is reported as “Active”, the Activity [2] is reported as “Active” and the “fold change (FC)” value [3] is reported as 0.54. The Activity [4] was “inactive”, the “fold change (FC)” value [5] was 0.84 and the IC50 [6] was 5.49 µM. It also gave an Activity [7] of 16.6%, an Activity [8] of 1.34% and an Activity [9] of 7.5%. For the same compound, the “fold change (FC)” value [10] was 0.5, the “fold change (FC)” value [11] was 0.77 and the Activity [12] was “Dose-Dependent Effect”. The Activity [13] was 26.6%, the “fold change (FC)” value [14] was 1.1 and the Activity [15] was 6.08%. The “fold change (FC)” value [16] was 0.83, the Activity [17] was “Active” and the “fold change (FC)” value [18] was 0.8.
